The source of these data is patent US11312676B2, “Small molecule stimulators of steroid receptor coactivator proteins and their use in the treatment of cancer” (BAYLOR COLLEGE OF MEDICINE, priority 2014, dated 2022).

Structures are written as SMILES.

In one data set the target is T1, SRC-3 (Homo sapiens, UniProt Q9Y6Q9).
T1 construct: expressed in transfected cells; host or cells: HeLa
In words: Gal4 luciferase reporter assay (pBIND-SRC-3 + pG5-LUC) in HeLa cells. The class given is cell-based. The method, then: (§1) The constructs expressing the Gal4 responsive luciferase reporter (pG5-luc), Gal4 DBD fusion with SRC-1, […] (pBIND-SRC-1/-2/-3), MMP2 or MMP13 promoter driven luciferase reporter (MMP2-luc, MMP13-luc) were prepared. Twenty-four hours before transfection, HeLa cells were plated in 24-well dishes. The indicated expression plasmids were transfected into cells using Lipofectamine 2000 according to the manufacturer's instructions.
(§2) After various compound treatments, cells were lysed in luciferase lysis buffer and assayed for luciferase activity using the ONE-Glo luciferase assay system (Promega, Madison, Wis.). All luciferase activities were normalized to protein concentration determined by Bradford assay (Bio-Rad, Hercules, Calif.).
HeLa cells were transfected with a Gal4 responsive luciferase reporter (pG5-luc) and a construct encoding SRC-1, SRC-2 or SRC-3 fused with the DNA binding domain of Gal4 (pBIND-SRC-1, pBIND-SRC-2 or pBIND-SRC-3) were treated with the indicated compounds.

The subject of the next data set is HepG2 (liver) cells. The data set is described as follows: MTS cell viability assay, HepG2. The class given is cell-based. The note with it: HepG2, 48 hours. The method, then:
(§3) Cell lines were maintained in DMEM (HeLa, MCF-7, HepG2), RPMI 1640 (H1299), or DMEM/F12 (PC-3) supplemented with 10% fetal calf serum, penicillin and streptomycin (100 U/ml). Primary mouse hepatocytes were isolated and cultured. Mouse embryonic fibroblasts (MEF) were cultured in DMEM. All cells were maintained at 37° C. under 5% CO2.
(§4) Cells were seeded in 96-well plates and allowed to reach 70% to 80% confluence. After indicated compound treatments, relative numbers of viable cells were measured by MTS assay using the Cell Titer 96 Aqueous One Solution Cell Proliferation Assay (Promega).
(In general: Tetrazolium assays rely on reduction of a dye to a coloured formazan, in cell work by metabolically active cells.)

Another data set relates to MEF cells. In words: MTS cell viability assay, mouse embryonic fibroblasts. The class given is cell-based. The following applies: 48 hours. The procedure:
as §3, §4

Data set [1] concerns MCF-7 breast cancer xenograft. The data set is described as follows: MCF-7 xenograft tumor model. The data set is classed as in vivo. The note with it: 20 mg/kg i.p. three times a week. The method, then:
Twenty 6-8 week-old athymic nude female mice were obtained from Harlan. Two days before cancer cell injection, one estradiol pellet was embedded under the skin for each mouse and a new pellet was added twice at a one month interval. Following this, 1×10^6 MCF-7 cells […] mixed with equal volume of growth factor reduced matrigel (BD Biosciences) were injected into the fat pad of each of the 2nd pair mammary gland without clearing. The MCB-613 treatment which lasted for seven weeks was started approximately seven weeks after the cell injection when tumor sizes reached above 5 mm in diameter. Ten mice received MCB-613 (20 mg/kg) in saline by i.p. injection, whereas the control group contained 10 mice which received saline only. The compound was injected three times a week. The mice were weighed once a week and tumors were measured twice a week during the treatment period.
To further evaluate the anti-cancer potential of MCB-613, a MCF-7 breast cancer mouse xenograft model was employed to assess the tumor suppressive effects of MCB-613 in vivo. Tumors were established in athymic nude mice seven weeks after injection of MCF-7 cells into […] mammary fat pads. An MCB-613 treated group (n=10) received i.p. injection of the compound (20 mg/kg) three times a week, while a control group (n=10) was injected with a saline vehicle.

Data set [2] has as its system human pediatric GBM tumor. In words: Patient derived xenograft pediatric GBM model, survival. The data set is classed as in vivo. The note with it: treated every day for 14 days, tumor cells in mouse brainstem. The procedure: A tumor from a human patient was transferred directly into a mouse host (patient derived xenograft) without culturing on a plastic substrate. Tumor cells (50,000) were injected into mouse brainstems and allowed to proliferate for 14 days. Animals were treated every day with either MCB-613 (test group) or vehicle (control group) for 14 days. The animals were then housed with no further experimental manipulation. Overall survival was recorded from the experimental and control groups.
For orientation: Xenograft models place foreign cells or tissue in a host animal.

The target of a further data set is T2, SRC-3-CBP-CARM1 complex (Homo sapiens, UniProt Q9Y6Q9).
T2 construct: expressed in transfected cells; host or cells: HeLa
The data set is described as follows: Coimmunoprecipitation of FLAG-SRC-3 with CBP and CARM1 in HeLa cells. The class given is cell-based. The following applies: HeLa cells overexpressing FLAG-SRC-3, one hour, dose-dependent. The method, then: For Western blotting, cells were harvested and lysed in lysis buffer (50 mM Tris, pH 8.0, 150 mM NaCl, 10% glycerol, 0.5% NP40, protease and phosphatase inhibitor) and then centrifuged for 15 min at 14000 rpm at 4° C. After total cellular protein concentration was determined by Bradford analysis (Bio-Rad, Hercules, Calif.), protein lysates were loaded onto and resolved by sodium dodecyl sulfate-polyacrylamide gel electrophoresis (SDS-PAGE) and transferred to PVDF membranes (BioRad) which were blocked and incubated with indicated antibodies. For immunoprecipitation, 10 μg of plasmid encoding FLAG-SRC-3 was transfected into HeLa cells with 90% confluence in one 10 cm plate with lipofectamine 2000 (Invitrogen). Twenty-four hours after transfection, the cells were treated with MCB-613 for one hour and lysed with lysis buffer (25 mM Tris-Cl pH7.5, 150 mM NaCl, 5% glycerol, 1 mM EDTA, 1% Triton X-100, protease and phosphatase inhibitor) at 4° C. After a 30-second sonication, the lysate was cleared by centrifugation at 14000 rpm at 4° C. for 15 minutes and was incubated with anti-Flag-M2 agarose affinity gel (Sigma) for four hours. The agarose gel was washed four times with washing buffer (25 mM Tris pH 8.0, 150 mM NaCl, 1 mM EDTA, 1% Triton X-100) and resuspended with SDS loading buffer for Western blotting. […]

Data set [3] deals with SRC-1, SRC-2 and SRC-3 protein levels. The data set is described as follows: Immunoblot of SRC protein levels in HeLa cells. The class given is cell-based. The note with it: 24 hours. The procedure:
For Western blotting, cells were harvested and lysed in lysis buffer (50 mM Tris, pH 8.0, 150 mM NaCl, 10% glycerol, 0.5% NP40, protease and phosphatase inhibitor) and then centrifuged for 15 min at 14000 rpm at 4° C. After total cellular protein concentration was determined by Bradford analysis (Bio-Rad, Hercules, Calif.), protein lysates were loaded onto and resolved by sodium dodecyl sulfate-polyacrylamide gel electrophoresis (SDS-PAGE) and transferred to PVDF membranes (BioRad) which were blocked and incubated with indicated antibodies. For immunoprecipitation, 10 μg of plasmid encoding FLAG-SRC-3 was transfected into HeLa cells with 90% confluence in one 10 cm plate with lipofectamine 2000 (Invitrogen). Twenty-four hours after transfection, the cells were treated with MCB-613 for one hour and lysed with lysis buffer (25 mM Tris-Cl pH7.5, 150 mM NaCl, 5% glycerol, 1 mM EDTA, 1% Triton X-100, protease and phosphatase inhibitor) at 4° C. After a 30-second sonication, the lysate was cleared by centrifugation at 14000 rpm at 4° C. for 15 minutes and was incubated with anti-Flag-M2 agarose affinity gel (Sigma) for four hours. The agarose gel was washed four times with washing buffer (25 mM Tris pH 8.0, 150 mM NaCl, 1 mM EDTA, 1% Triton X-100) and resuspended with SDS loading buffer for Western blotting.
On the technique in general: In western blotting, separated proteins are transferred to a membrane and probed.

In data set [4] the target is T3, SRC-1 (Homo sapiens, UniProt Q15788). The data set is described as follows: High throughput primary screen, HEK293 cells with pG5-luc and pBIND-SRC-1. The data set is classed as cell-based. The arrangement: expressed in transfected cells. The following applies: among 359,484 compounds. The text has this:
In a series of high throughput screens originally designed to identify SRC small molecule inhibitors, HEK293 cells transfected with a Gal4 responsive luciferase reporter (pG5-luc) and a construct encoding SRC-1, SRC-2 or SRC-3 fused with the DNA binding domain of Gal4 (pBIND-SRC-1, pBIND-SRC-2 or pBIND-SRC-3) were exposed to treatments with 359,484 compounds from a MLPCN chemical library (PubChem AID:588362, AID:652008 and AID:588354).

The target of data set [5] is T3, SRC-1. In words: Gal4 luciferase reporter assay (pBIND-SRC-1 + pG5-LUC) in HeLa cells. More on the design: expressed in transfected cells; host or cells: HeLa. The following applies: 24-hour treatment, 5-8 μM, maximum over SRC-1/-2/-3. The class given is cell-based. The method, then: as §1, §2

T3 sequence (Q15788 whole entry, the tested form may be a part): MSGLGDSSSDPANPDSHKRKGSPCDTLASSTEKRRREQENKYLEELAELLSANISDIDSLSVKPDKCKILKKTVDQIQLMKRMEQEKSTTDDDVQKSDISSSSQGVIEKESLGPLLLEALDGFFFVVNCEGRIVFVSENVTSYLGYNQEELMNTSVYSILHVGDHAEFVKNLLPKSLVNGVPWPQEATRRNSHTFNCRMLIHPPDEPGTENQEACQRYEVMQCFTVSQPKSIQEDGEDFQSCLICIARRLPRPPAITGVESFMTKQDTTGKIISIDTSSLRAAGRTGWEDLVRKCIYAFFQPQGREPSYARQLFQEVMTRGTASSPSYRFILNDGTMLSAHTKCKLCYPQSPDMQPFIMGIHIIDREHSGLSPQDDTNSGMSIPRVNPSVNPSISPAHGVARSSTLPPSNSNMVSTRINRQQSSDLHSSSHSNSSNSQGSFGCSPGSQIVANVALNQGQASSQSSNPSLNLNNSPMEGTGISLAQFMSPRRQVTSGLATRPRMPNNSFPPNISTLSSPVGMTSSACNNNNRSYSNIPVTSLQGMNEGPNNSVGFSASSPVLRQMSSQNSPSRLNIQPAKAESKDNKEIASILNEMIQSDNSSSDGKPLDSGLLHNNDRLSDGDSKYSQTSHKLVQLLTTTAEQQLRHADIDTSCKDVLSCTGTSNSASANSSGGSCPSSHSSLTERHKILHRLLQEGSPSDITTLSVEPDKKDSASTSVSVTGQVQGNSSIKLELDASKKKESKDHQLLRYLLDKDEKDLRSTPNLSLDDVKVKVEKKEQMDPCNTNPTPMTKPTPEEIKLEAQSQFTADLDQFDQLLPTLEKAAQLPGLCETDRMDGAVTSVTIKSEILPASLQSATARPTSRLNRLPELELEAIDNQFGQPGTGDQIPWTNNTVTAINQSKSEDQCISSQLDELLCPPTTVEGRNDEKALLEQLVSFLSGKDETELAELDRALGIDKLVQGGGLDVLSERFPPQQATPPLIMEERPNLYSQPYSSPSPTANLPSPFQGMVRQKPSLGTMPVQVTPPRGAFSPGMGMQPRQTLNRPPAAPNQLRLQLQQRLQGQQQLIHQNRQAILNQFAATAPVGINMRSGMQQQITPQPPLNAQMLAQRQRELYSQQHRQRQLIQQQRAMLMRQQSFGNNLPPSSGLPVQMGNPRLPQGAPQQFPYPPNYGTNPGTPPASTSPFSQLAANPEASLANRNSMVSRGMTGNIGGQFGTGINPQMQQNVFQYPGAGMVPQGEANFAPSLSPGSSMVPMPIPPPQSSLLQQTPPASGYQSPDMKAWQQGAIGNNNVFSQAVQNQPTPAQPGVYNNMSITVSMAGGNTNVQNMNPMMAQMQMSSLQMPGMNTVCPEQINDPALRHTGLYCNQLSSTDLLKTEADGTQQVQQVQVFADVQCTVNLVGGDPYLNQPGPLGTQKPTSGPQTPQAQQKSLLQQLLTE
T1 sequence (Q9Y6Q9 whole entry): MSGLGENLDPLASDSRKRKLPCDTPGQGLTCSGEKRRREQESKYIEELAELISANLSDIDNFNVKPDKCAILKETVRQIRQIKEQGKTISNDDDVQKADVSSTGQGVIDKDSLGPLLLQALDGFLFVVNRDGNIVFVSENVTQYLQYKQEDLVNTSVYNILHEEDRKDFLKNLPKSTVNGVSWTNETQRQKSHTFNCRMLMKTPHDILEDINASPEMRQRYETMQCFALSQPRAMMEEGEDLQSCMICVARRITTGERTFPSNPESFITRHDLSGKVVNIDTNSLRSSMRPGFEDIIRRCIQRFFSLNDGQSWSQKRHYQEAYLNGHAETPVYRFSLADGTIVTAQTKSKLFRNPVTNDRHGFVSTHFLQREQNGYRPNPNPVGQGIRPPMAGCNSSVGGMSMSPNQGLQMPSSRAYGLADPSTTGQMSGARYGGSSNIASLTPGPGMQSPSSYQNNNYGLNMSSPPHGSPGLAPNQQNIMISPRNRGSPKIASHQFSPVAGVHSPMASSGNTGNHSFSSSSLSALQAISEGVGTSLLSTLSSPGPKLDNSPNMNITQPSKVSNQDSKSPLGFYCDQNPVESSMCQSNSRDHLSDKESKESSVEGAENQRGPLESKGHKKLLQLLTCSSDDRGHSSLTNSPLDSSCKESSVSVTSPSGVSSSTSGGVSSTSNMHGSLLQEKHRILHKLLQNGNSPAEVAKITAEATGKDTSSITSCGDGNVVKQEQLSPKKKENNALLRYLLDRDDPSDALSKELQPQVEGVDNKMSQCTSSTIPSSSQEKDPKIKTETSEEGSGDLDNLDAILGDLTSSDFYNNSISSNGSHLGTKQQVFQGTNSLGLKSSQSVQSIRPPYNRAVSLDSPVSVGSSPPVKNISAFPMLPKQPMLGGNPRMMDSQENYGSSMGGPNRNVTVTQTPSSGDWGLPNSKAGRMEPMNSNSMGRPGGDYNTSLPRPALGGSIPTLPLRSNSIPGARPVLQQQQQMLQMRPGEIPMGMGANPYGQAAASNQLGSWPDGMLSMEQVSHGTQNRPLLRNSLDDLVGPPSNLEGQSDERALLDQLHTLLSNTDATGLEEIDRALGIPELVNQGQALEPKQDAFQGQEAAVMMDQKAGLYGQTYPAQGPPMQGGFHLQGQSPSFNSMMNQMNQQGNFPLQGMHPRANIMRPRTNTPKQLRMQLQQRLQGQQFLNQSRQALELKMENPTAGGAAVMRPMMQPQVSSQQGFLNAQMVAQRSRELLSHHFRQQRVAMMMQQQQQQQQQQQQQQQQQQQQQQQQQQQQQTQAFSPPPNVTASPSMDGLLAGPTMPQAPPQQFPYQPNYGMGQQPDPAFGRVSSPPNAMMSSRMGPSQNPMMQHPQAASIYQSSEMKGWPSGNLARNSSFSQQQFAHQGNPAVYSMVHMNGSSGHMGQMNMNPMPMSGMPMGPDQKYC

Turning to `CCC1CC(=Cc2cccnc2)C(=O)C(=Cc2cccnc2)C1` (stereo not drawn) [MCB-613, 4-Ethyl-2,6-bis-pyridin-3-ylmethylene-cyclohexanone], the “induction in the activity of pBIND-SRC-3” value on SRC-3 (24-hour treatment, 5-8 μM, maximum over SRC-1/-2/-3) is on record as at most 160 fold. Also, at SRC-3 (4 hours, 6-10 μM), the “SRC activity after 4 hours of treatment” value is recorded as “significant increase”. In addition, in the data set with HepG2 (liver) cells, the “cytotoxicity, cell viability” value was “efficiently kill”. The “cytotoxicity to normal cells” value in the data set with MEF cells was “resistant”. In [1] (7 weeks), the animal toxicity result is recorded as “did not lead to obvious animal toxicity”; the “body weights between control and treated groups” value is “identical”. Moreover, the “tumor volumes versus controls” value in [1] (after one week of treatment and throughout) is “significantly smaller than controls”. In addition, in data set [2], the overall survival entry is listed as “extends survival time”. The “SRC-3's interaction with CBP and CARM1” value on SRC-3-CBP-CARM1 complex is listed as “increased”. In addition, in data set [3], the “SRC-1, SRC-2 and SRC-3 protein levels” value was “decreases”. Moreover, the “activation of SRC-1 in the primary screen” value on SRC-1 [4] was “greatest activation”. The “induction in the activity of pBIND-SRC-1” value at SRC-1 [5] is at most 160 fold.
